Key:
[1] = test system: MC903-induced AD-like skin inflammation; assay: MC903-induced atopic dermatitis mouse model; assay type: in vivo, Female Balb/cAnNRj mice; details: for body weight loss: topical treatment, MC903 model
Description: Punch biopsies were stored in 750 μL RNAlater-ICE (ThermoFisher) at −80° C. for 20 minutes and overnight at −20° C. Then, the biopsies were added to 175 μL SV RNA lysis buffer with β-mercaptoethanol (SV Total RNA Isolation System; Promega) followed by homogenization using TissueLyser (Qiagen, Hilden, Germany). The remaining steps including RNA purification and DNase treatment were conducted following the manufacturer's instructions.
cDNA was generated using total RNA, TaqMan Reverse Transcription Reagents with random hexamers (ThermoFisher) and Peltier Thermal Cycler-200 (MJ Research Inc, Waltham, MA, USA) following the manufacturer's instructions. Real-time PCR was carried out with 20 ng cDNA per 20 μL reaction in StepOnePlus Real-Time PCR system (ThemoFisher) using TaqMan Universal PCR Master Mix, primers and probes (ThermoFisher) for TNF (Hs00174128_m1), ILIB (Hs01555410_m1), IL6 (Hs00174131_m1), TSLP (Hs00263639_m1), CCL17 (Hs00171074_m1), CCL22 (Hs01574247_m1), Il1b (Mm00434228_m1), Il4 (Mm00445259_m1), Il6 (Mm00446190_m1), Il13 (Mm00434204_m1) RPLPO (Hs99999902_m1) and Gapdh (Mm99999915_m1). Three technical replicates for each sample underwent real-time PCR; 2 minutes at 50° C. and 10 minutes at 95° C. followed by 40 cycles of 15 seconds at 95° C. and 1 minute at 60° C. The standard curve method with StepOne Software v2.1 and reference genes (RPLPO and Gapdh) were used to obtain normalised relative expression levels of target genes.^17
Female Balb/cAnNRj (8 weeks old) mice were purchased from Janvier Labs (Le Genest-Saint-Isle, France), and housed in animal facilities at 19-25° C. with 12-hour light/dark cycles and free access to laboratory rodent diet and water. The mice had at least 1 week acclimation period before the experiments started.
Mice were randomly divided to receive: vehicle and drug-vehicle (negative control); MC903 (MedChemExpress, Monmouth Junction, NJ, USA) and drug-vehicle (disease control); MC903 and topical or oral Compound I (Compound I treatment groups); or MC903 and topical dexamethasone (positive control; purchased from Sigma-Aldrich). Four to eight mice were allocated to each group, totalling 76 mice for all experiments.
To induce AD-like skin inflammation, 1 or 2.5 nmol of MC903 in 25 μL absolute ethanol was topically applied once daily to the ventral and dorsal surface of the right ear for six consecutive days. After MC903 challenge, the mice were treated with topical Compound I (1 mg in 25 μL ethanol), oral Compound I (100 mg/kg), topical dexamethasone (20 nmol in 25 μl ethanol), or drug-vehicle (topical ethanol or oral 5% kleptose [HPB, Roquette Pharma, Lestrem, France]). The topical treatments were applied 2 hours post-MC903 challenge, whereas the oral treatments were administered by oral gavage immediately post-MC903 challenge. At the end of the experiment on day 9, clinical photos of the ears were taken and the mice were euthanised by cervical dislocation. Two punch biopsies (4 mm) from the ear were collected for RNA isolation and histological assessment. Ear thickness, the primary clinical endpoint for inflammation, was measured daily with a digital calliper (Mitutoyo Corporation, Kawasaki, Japan), and body weight was measured throughout the study to monitor the welfare of mice. During the experimental procedures, the mice were anesthetized with 2% isoflurane.
Four-millimetres punch biopsies from the ear were fixed in 4% formaldehyde overnight at 4° C., paraffin-embedded, and serially sliced into 4 μm sections subjected to staining procedures. For haematoxylin & eosin (HE) staining, a standard protocol was followed. To detect mast cells, sections were stained with 0.1% toluidine blue solution (Sigma-Aldrich) at pH 2.3 and room temperature for 3 minutes. […]

STAT1 = assay: Western blot of STAT1 phosphorylation in stimulated NHEKs; assay type: cell-based, human; details: 5 μM, 1 hour
Description: (§1) Primary normal human epidermal keratinocytes (NHEKs) were isolated from nine healthy donors as described previously.^13 The keratinocytes were plated in 6-well plates and cultured in keratinocyte SFM (Gibco, ThermoFisher Scientific, Waltham, MA, USA) supplemented with growth factors and 5 μg/ml Gentamicin (Gibco) at 37° C. in a humidified incubator containing 5% CO2 until 60-70% confluency. Subsequently, the keratinocytes were starved for 24 hours in keratinocyte SFM medium without growth factors before the initiation of experiments.
(§2) PBS-washed keratinocytes were added cell lysis buffer with complete Protease Inhibitor Cocktail and phenylmethylsulphonyl fluoride (Sigma-Aldrich). […] The protein concentration was determined by Bradford Protein Assay.
(§3) A total of 20 μg protein extract for each sample was loaded on 10% mini-PROTEAN TGX PreCast Gel (Bio-Rad, Hercules, CA, USA) and separated by gel electrophoresis using Mini Trans-Blot Cell (Bio-Rad). […] Protein bands were detected with an enhanced chemiluminescence (ECL) reaction using Clarity Western ECL Substrate (Bio-Rad) and digitally imaged with C-DiGit Blot Scanner (LI-COR, Lincoln, NE, USA). To normalize the protein expression to β-actin levels, the membranes were stripped and reprobed with an anti-β-actin antibody (A1978; Sigma-Aldrich), which was detected by HRP-conjugated anti-mouse IgG (p0447; Dako, Glostrup, Denmark). […]

[2] = Skin concentration in punch biopsies of hidradenitis suppurativa subjects, week 16; assay type: in vivo, human; details: oral dosing at 250 mg; skin (16 weeks daily) vs plasma (single dose)
From the text: A 16-week treatment, randomized, double-blind, proof-of-concept study was designed to assess the safety and efficacy of Compound I compared to placebo in treating hidradenitis suppurativa. Eligible subjects completed an up-to 4-week screening phase and sequentially be randomized 2:1 to one of two cohorts, treatment cohort (n=10) or placebo-control cohort (n=5), in a 16-week treatment phase followed by a 4-week observational follow-up phase. In the 16-week treatment phase, subjects randomized to the treatment group receive 250 mg Compound I free base in the form of a tablet administered orally once daily. The 250 mg dose was selected based on the results of an earlier oncology trial conducted with doses in excess of 1000 mg/day as a safe minimal dose from which to conduct dose escalation if required. Subjects randomized to the placebo-control group receive placebo treatment once daily (microcrystalline cellulose, mannitol, crospovidone, Opadry II red, magnesium stearate, colloidal silicon dioxide).
The accumulation of Compound I in the skin of human hidradenitis suppurativa of subjects in the treatment cohort was determined. […] FIG. 7 is a graph showing the concentrations of Compound I found in the biopsied tissues in subjects grouped according to their clinical response to Compound I therapy. […]

STAT3 = assay: Western blot of STAT3 phosphorylation in stimulated NHEKs; assay type: cell-based, human; details: 5 μM, TNF/IFNγ or TNF/IL-4 stimulation, 1 hour
Description: as §1, §2, §3

stimulated NHEKs = details: previous concentration studies; used concentration 5 μM; cited from earlier work
[3] = psoriasis and hidradenitis suppurativa patients; cited from earlier work
[4] = test system: primary normal human epidermal keratinocytes (NHEKs) stimulated with TNF/IFNγ or TNF/IL-4; assay: RT-qPCR of AD-related gene expression in cytokine-stimulated primary human keratinocytes; assay type: cell-based; details: 5 μM, 24 hours
Description: as §1
Keratinocytes were washed with phosphate-buffered saline (PBS; Gibco) followed by RNA extraction using SV 96 Total RNA Isolation System (Promega, Madison, WI, USA) per the manufacturers' instructions. NanoDrop 2000 Spectrophotometer (ThermoFisher) was used to determine the RNA concentration and purity.
cDNA was generated using total RNA, TaqMan Reverse Transcription Reagents with random hexamers (ThermoFisher) and Peltier Thermal Cycler-200 (MJ Research Inc, Waltham, MA, USA) following the manufacturer's instructions. […]
The statistical significance threshold was set at P<0.05. Differences between treatment groups in clinical endpoints, mRNA (qPCR) and protein levels (western blot) were analysed by unpaired t-tests for mice and paired t-tests for keratinocytes. […]

p65 (subunit of NF-κB) = assay: Western blot of p65 phosphorylation in stimulated NHEKs; assay type: cell-based, human; details: 5 μM, 1 hour
Description: as §1, §2, §3

AD-like inflammation = assay: MC903 model at independent testing facility (alternative MC903 regimen); assay type: in vivo, BALB/c mice; details: oral 20, 50 and 100 mg/kg
Description: To evaluate the feasibility of orally administered Compound I, mice were challenged with 2.5 nmol MC903 for six days and administered 100 mg/kg Compound I by oral gavage once daily throughout the experiment.

[5] = Plasma pharmacokinetics after single oral dose in healthy male subjects; assay type: in vivo, human; details: single oral dose 250 mg, read-out: Cmax (median)
Description: The skin accumulation found in this study was compared to plasma levels of Compound I determined in a previous study in healthy human volunteers. Six healthy male subjects were given a single oral dose of 250 mg Compound I, and plasma samples were collected pre-dose and at 0.25, 0.5, 0.75, 1, 1.5, 2, 2.5, 3, 4, 6, 8, 10, 12, 18, 24, 30, 36, 48, 72 and 96 hours after dosing.

STAT6 = assay: Western blot of STAT6 phosphorylation in stimulated NHEKs; assay type: cell-based, human; details: 5 μM, TNF/IL-4 stimulation, 1 hour
Description: as §1, §2, §3

[6] = topical, 1 nmol MC903, ear biopsies

CN(C)c1cc2c(cc1Sc1nc3c(N)nccc3n1CCNCC(C)(C)C)OCO2 [Compound I]
erythema ([1]; oral 100 mg/kg, 2.5 nmol MC903): visibly reduced erythema | reduction of ear thickening compared with drug-vehicle ([1]; oral gavage 100 mg/kg once daily, 2.5 nmol MC903): 28% | reduction in ear thickness compared with drug-vehicle ([1]; topical 1 mg once daily, 1 nmol MC903, day 9): 55% | suppression of MC903-induced ear thickening ([1]; topical 1 mg once daily, 2.5 nmol MC903, day 9): 50% | body weight loss [1]: significantly less weight loss compared with dexamethasone | cytokine expression of Il1b, Il4, Il6 and Il13 in ear tissue compared with drug-vehicle ([1]; topical, 1 nmol MC903, RNA sequencing and qPCR): significantly reduced | erythema ([1]; topical, 1 nmol MC903, day 9): visibly reduced erythema | epidermal and dermal thickness (histology) [1, 6]: significantly decreased | immune cell infiltration into the skin (mast cells, Ly6g+ neutrophils, CD4+ T-cells) [1, 6]: significantly suppressed | total number of cells within histological sections [1, 6]: significantly reduced | reduction of ear thickness ([1]; topically delivered, summary of 1 and 2.5 nmol MC903 experiments): 50-54% | phosphorylation of STAT1 (STAT1): no significant effects | accumulation in the skin relative to plasma [2]: approximately 100,000 fold | phosphorylation of STAT3 (STAT3): significantly suppressed | toxicity in stimulated NHEKs (stimulated NHEKs): 3-6% | tolerability of oral treatment [3]: well-tolerated | expression of AD-associated cytokines (TNF, IL1B, IL6) and chemokines (CCL17, CCL22) ([4]; TNF/IFNγ or TNF/IL-4 stimulation, vs stimulated/vehicle- and stimulated/dexamethasone-treated NHEKs): robustly inhibited the expression | expression of TSLP ([4]; stimulated NHEKs): suppressed | phosphorylation of p65 (p65 (subunit of NF-κB)): no significant effects | alleviation of AD-like inflammation (AD-like inflammation): dose-dependent improvement | Cmax [5]: 46 nM | reduction of phosphorylation of STAT6 (STAT6): ~ 20%

C[C@@H]1C[C@H]2[C@@H]3CCC4=CC(=O)C=C[C@]4(C)[C@@]3(F)[C@@H](O)C[C@]2(C)[C@@]1(O)C(=O)CO [dexamethasone, reference compound]
body weight loss [1]: lost significantly more weight than Compound I-treated mice

From patent US20260240822A1, “Methods and Compositions for Treating Atopic Dermatitis” (Regranion, LLC, priority 2023, published 2026)
